In ChEMBL document CHEMBL1201862, “PubChem BioAssay data set” (2004) one finds AC50 and EC50 data, which are given here for 22 compounds.

For orientation: AC50 means the concentration at which the activity in the assay is half-maximal. The term EC50 denotes the concentration giving half of the maximal effect.

The source made the active and inactive calls. For most assays here, no stated cut-off is given here; in the data, actives have a measured EC50 and inactives only a lower limit.

For one experiment, the target named is T1, Cytochrome P450 1A2 (Homo sapiens, UniProt P05177).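 Further: PubChem cytochrome P450 panel assay, CYP1A2 panel member.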
T1 sequence (P05177 whole entry): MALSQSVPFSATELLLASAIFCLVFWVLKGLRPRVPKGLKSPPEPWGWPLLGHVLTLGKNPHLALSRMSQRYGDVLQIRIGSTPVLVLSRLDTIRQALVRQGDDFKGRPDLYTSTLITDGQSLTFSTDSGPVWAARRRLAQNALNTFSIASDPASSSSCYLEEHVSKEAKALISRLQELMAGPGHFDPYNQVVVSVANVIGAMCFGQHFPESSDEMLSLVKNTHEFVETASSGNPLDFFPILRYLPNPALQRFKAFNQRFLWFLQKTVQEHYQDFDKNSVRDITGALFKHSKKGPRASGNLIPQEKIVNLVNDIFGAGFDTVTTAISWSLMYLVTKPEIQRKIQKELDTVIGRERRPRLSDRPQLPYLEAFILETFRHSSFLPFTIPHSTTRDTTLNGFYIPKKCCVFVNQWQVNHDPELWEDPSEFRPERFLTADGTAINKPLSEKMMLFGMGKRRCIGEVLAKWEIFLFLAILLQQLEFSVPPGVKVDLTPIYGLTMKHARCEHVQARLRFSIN

In the next experiment the target is T2, Protein RecA (Mycobacterium tuberculosis, UniProt P9WHJ3).
T2 sequence (P9WHJ3 whole entry): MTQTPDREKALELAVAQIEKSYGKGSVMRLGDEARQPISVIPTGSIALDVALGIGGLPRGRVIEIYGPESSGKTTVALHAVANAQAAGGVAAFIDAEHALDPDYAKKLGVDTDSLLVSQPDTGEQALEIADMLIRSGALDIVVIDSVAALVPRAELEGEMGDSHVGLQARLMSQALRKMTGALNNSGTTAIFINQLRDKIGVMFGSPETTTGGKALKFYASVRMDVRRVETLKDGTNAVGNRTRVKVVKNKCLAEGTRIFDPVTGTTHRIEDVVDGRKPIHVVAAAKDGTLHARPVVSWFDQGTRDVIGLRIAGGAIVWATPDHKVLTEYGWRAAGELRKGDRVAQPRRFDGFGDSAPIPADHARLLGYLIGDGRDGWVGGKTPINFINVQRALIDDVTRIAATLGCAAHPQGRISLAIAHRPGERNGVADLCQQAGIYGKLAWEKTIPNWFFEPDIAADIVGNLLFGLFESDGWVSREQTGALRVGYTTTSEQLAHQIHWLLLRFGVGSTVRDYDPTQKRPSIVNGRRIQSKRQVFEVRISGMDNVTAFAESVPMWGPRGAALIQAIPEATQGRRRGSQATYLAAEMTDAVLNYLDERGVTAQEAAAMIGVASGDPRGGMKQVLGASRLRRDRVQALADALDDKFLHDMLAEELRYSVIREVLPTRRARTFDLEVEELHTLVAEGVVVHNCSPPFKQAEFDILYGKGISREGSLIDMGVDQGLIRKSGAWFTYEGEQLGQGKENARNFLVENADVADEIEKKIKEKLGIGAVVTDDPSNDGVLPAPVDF
As to the kind of experiment: Fluorescence Cell-Free Homogeneous Dose Retest to Identify Inhibitors of RecA-Intein Splicing Activity. [Related pubchem assays (depositor defined):AID2097, AID2223, AID489010, AID492950]. Format: functional.

Experiment [1] has as its target T3, Replicative DNA helicase DnaB (Mycobacterium tuberculosis, UniProt P9WMR3).
T3 sequence (P9WMR3 whole entry): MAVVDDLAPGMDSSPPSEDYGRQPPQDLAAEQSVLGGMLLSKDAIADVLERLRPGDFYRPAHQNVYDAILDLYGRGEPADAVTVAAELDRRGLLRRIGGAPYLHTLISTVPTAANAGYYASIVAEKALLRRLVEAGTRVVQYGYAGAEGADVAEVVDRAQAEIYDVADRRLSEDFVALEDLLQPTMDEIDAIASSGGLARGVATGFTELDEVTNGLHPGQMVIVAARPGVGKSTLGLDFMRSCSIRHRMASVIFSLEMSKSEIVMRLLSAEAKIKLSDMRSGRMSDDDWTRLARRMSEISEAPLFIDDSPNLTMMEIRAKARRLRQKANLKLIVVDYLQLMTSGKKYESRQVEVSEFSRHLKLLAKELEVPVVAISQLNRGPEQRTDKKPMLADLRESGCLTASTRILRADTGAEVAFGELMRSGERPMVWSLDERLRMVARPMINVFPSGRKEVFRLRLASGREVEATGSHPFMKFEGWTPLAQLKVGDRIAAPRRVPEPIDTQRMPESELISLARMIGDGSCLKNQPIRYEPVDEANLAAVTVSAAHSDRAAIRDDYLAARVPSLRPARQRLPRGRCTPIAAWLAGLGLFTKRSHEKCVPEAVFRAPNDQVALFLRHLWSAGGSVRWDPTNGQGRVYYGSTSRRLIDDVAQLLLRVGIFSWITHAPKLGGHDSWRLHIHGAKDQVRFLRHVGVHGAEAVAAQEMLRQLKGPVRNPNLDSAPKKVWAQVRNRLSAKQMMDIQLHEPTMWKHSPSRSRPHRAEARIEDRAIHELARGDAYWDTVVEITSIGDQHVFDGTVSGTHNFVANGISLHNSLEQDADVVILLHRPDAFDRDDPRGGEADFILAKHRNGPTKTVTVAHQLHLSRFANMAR
As to the kind of experiment: DnaB intein splicing inhibitors, dose response, biochemical, cell-free fluorescence (AID 449749). Format: functional.

The subject of a further experiment is INS1. As to the kind of experiment: beta cell apoptosis inhibitors, cytokine rescue, dose response, luminescence, retest (AID 449756).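 Further: cell death triggered by IL-1 beta plus TNF-alpha plus IFN-gamma mixture; protective hits raise ATP signal compared with cytokine alone wells.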 Format: functional, cell-based. To be noted: Rattus norvegicus.
Experiment [2] concerns the target T4, Zinc finger protein mex-5 (Caenorhabditis elegans, UniProt Q9XUB2).
T4 sequence (Q9XUB2 whole entry): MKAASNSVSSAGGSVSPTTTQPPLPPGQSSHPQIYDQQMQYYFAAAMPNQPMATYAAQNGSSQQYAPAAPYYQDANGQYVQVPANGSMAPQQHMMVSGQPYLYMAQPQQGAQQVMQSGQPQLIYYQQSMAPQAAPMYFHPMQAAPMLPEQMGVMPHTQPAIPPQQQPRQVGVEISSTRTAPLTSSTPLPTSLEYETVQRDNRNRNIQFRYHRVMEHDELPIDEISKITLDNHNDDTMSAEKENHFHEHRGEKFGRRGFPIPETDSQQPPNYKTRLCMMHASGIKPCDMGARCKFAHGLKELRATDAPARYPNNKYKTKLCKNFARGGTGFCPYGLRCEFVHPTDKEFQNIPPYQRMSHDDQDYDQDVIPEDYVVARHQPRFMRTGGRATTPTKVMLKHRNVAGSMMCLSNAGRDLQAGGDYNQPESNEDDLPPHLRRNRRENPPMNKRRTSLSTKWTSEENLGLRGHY
As to the kind of experiment: MEX-5/TCR-2 RNA interaction inhibitors, dose response, biochemical, C. elegans, fluorescence polarization (AID 1960).

Experiment [3] addresses T5, RNA-binding protein pos-1 (Caenorhabditis elegans, UniProt G5EF15).
T5 sequence (G5EF15 whole entry): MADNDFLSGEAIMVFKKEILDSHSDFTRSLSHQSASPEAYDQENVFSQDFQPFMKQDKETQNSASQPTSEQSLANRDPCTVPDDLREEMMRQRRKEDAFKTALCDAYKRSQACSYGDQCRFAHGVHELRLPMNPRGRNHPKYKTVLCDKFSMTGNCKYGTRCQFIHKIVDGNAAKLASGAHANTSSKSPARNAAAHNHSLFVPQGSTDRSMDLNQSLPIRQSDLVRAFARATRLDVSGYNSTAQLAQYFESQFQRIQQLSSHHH
As to the kind of experiment: inhibitors of POS-1/mex-3 RNA binding, dose response, biochemical, fluorescence polarization (AID 1964).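 Further: purified POS-1 fused to maltose binding protein made in E. coli; potency of compounds blocking POS-1 binding to fluorescent RNA.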 On the technique in general: Polarisation of emitted light reports the rotation of a fluorescent probe.

In a further experiment the test system is H4. As to the kind of experiment: Luminescence Cell-Based Dose Response HTS to Identify Activators of 5'UTR Stem-Loop Driven Prion Protein mRNA Translation in H4 Neuroglioblastoma Cells. [Related pubchem assays: 1829 (Project Summary), 1814 (Primary HTS)]. Format: functional. The following applies: Homo sapiens.
Experiment [4] in a line: Luminescence Cell-Based Dose Response HTS to Identify Activators of Luciferase Translation or Activity in H4 […] Cells. [Related pubchem assays: 1829 (Project Summary), 1814 (Primary HTS)]. Format: functional.
Experiment [5] can be described thus: Luminescence Cell-Based Dose Retest to Confirm Inhibitors of Cancer Stem Cells. [Related pubchem assays (depositor defined):AID2717, AID2721]. The following applies: Homo sapiens. Format: functional.

On to `Cc1[nH]c2ccccc2c1CCNC(=O)c1ccc2c(c1[N+](=O)[O-])C(=O)c1ccccc1C2=O`, for which the AC50 at Cytochrome P450 1A2 is 4.47 µM (inconclusive); in experiment [1] it was 10.1 µM (active). The EC50 at Protein RecA was 3.26 µM (active).
As for `Cc1ccc(C2CC(c3ccc(C)cc3)n3nc(N)nc3N2)cc1` (configuration not stated), the AC50 with INS1 is 28.7 µM (active).
Consider `O=C(O)c1ccc(/C=C(\c2nc3ccccc3[nH]2)c2nc3ccccc3s2)cc1`, for which the EC50 on Protein RecA is 21 µM (active). For the same compound, the AC50 in experiment [1] was > 380 µM (inactive).
As to `CCn1c(CNC(=O)c2ccc(Cl)cc2)nnc1SCC(=O)N1CCOCC1`, the EC50 in experiment [2] and in experiment [3] was > 300 µM (not active) throughout.
Consider `COc1ccc(C2=CC3=CC(=O)C(C)(O)C(=O)C3=CO2)cc1` (configuration not stated), for which the values for the EC50 in experiment [2] and in experiment [3] were 25.5 µM (active) and 45.6 µM (active), respectively.
As to `[O-][n+]1onc2c3ccnnc3ccc21`, the EC50 in the experiment with H4 was > 120 µM (not active); in experiment [4], 1.93 µM (active).
Take `CC1(C)CC(=O)C2=C(C1)OC(N)=C(C#N)C2c1ccc(OC(=O)N2CCOCC2)cc1` (configuration not stated): the EC50 in experiment [2] and in experiment [3] was > 300 µM (not active) throughout.
Consider `CC1(OC(=O)C2CCCC2)C(=O)C=C2C=C(C3CC3)OC=C2C1=O` (configuration not stated), for which the EC50 in experiment [2] and in experiment [3] was > 300 µM (not active) throughout.
Take `Cc1cc(N2C(=O)C(O)=C(C(=O)c3cc4ccccc4o3)C2c2ccc([N+](=O)[O-])cc2)no1` (configuration not stated): the EC50 is 45.4 µM (active) in [2] and > 300 µM (not active) in [3].
For `O=C(O)c1ccc(-n2c(=O)c3ccccc3c3ccccc3c2=O)cc1`, the EC50 at Protein RecA was 70.7 µM (active). Also, the AC50 in experiment [1] was 15.8 µM (active).
In the case of `CCc1c(C)nc(SCC(=O)NNC(=O)c2ccco2)[nH]c1=O`, the EC50 in [2] was 10.1 µM (active); in experiment [3], 7.26 µM (inconclusive).
Consider `COc1ccc2nc(N=Nc3ccc(O)c4ccccc34)sc2c1`, for which the AC50 in experiment [5] is 1.73 µM (active); with INS1 it was 2.09 µM (active).
Turning to `Cc1cccc(Nc2nc3c(s2)CCCC3)c1`, the EC50 with H4 was 3.41 µM (active); in experiment [4], 2.59 µM (active).
On to `O=C1N=NC2=C1c1c3ccccc3c(O)n1CC2`, for which the EC50 on Protein RecA was 7.63 µM (active). Moreover, the AC50 in experiment [1] is 15.6 µM (active).
The like results for `Cc1cc2nc(Sc3c([N+](=O)[O-])nc(C)n3Cc3ccccc3)[nH]c2cc1C` were, in that order, 7.56 µM (active) and 11.3 µM (active).
With `Cc1ccc(/C=C2\C(=O)NC(=O)N(CC3CCCO3)C2=O)s1` (configuration not stated), the EC50 in [2] and in [3] was > 300 µM (not active) each time.
Consider `O=C1NC(=O)/C(=C2\C(=O)Nc3ccc(Br)cc32)S1`, for which the values for the EC50 in [2] and in [3] were 11 µM (active) and 17 µM (active), respectively.
Turning to `Cc1ccc(-c2ccc(CCC(=O)O)n2-c2ccc(C(=O)O)cc2)cc1`, the EC50 in experiment [2] and in experiment [3] was > 300 µM (not active) throughout.
Regarding `COC(/C(=N/O)c1ccc(Cl)cc1)c1ccccc1` (configuration not stated), in the experiment with INS1, the AC50 is 2.72 µM (active).
The same measure, in the same setting: for `O=C(CN1CCCc2ccccc21)N/N=C/c1ccccc1O` the value was 4.81 µM (active).
Regarding `O=C(N/N=C/c1ccc([N+](=O)[O-])o1)c1ccccc1NS(=O)(=O)c1cccs1`, at Protein RecA, the EC50 is 125 µM (active). Further, in experiment [1], the AC50 was > 380 µM (inactive).
`Cc1cc(/C=N/n2cnnc2)c(C)n1-c1ccc(C(=O)O)cc1`: the EC50 in [2] and in experiment [3] was > 300 µM (not active) each time.
